We go through two molecules from patent publication US20250346576A1, “KCNT1 INHIBITORS COMPRISING A PYRAZOLE CORE AND METHODS OF USE” (PRAXIS PRECISION MEDICINES, INC., priority 2022, published 2025).

A value given as a limit tells only on which side of the number the result lay.

The experiment has as its target T1, KCNT1 (KNa1.1, Slack) (Homo sapiens, UniProt Q5JUK3).
T1 construct: expressed in transfected cells; host or cells: HEK-TREX (tetracycline inducible cell line)
T1 sequence (Q5JUK3 1-1230): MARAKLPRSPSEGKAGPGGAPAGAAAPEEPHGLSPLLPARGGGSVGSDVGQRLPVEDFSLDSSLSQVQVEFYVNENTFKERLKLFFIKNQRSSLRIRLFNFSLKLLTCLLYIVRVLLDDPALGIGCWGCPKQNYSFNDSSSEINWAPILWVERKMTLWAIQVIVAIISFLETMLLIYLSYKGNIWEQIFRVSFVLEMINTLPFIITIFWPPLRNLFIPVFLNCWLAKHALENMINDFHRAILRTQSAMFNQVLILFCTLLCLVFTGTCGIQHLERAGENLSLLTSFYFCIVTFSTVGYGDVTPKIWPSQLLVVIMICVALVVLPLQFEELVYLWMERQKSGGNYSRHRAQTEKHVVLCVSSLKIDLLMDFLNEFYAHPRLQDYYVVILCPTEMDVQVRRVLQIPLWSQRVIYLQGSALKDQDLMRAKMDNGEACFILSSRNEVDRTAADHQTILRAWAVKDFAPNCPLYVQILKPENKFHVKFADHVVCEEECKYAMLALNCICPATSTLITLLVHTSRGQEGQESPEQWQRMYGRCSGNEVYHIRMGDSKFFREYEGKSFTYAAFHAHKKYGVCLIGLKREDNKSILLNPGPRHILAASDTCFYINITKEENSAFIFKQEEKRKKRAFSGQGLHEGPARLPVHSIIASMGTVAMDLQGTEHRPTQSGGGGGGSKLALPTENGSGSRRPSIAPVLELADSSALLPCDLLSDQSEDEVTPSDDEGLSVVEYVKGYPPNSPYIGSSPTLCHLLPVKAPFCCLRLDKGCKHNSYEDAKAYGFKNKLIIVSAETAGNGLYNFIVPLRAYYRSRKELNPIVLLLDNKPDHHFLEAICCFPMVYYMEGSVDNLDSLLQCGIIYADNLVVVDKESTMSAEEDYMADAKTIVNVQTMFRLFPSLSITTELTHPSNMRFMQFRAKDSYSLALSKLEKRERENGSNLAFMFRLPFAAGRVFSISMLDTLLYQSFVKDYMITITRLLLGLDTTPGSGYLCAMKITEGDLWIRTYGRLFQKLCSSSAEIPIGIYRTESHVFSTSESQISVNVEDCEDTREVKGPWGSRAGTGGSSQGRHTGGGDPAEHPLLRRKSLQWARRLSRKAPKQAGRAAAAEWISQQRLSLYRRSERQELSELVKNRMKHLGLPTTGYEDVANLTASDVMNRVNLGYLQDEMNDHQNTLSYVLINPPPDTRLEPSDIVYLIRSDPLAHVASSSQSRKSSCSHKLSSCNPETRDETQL
Put plainly: KCNT1 patch clamp assay (SyncroPatch 384PE, tetracycline inducible HEK-TREX cell line). In kind it is cell-based. Conditions: WT KCNT1, HEK-TREX cells, perforated patch, step from -80 mV to 0 mV, room temperature; read-out: WT (KCNT1 inhibition IC50). The protocol:
Inhibition of KCNT1 (KNa1.1, Slack) was evaluated using a tetracycline inducible cell line (HEK-TREX). Currents were recorded using the SyncroPatch 384PE automated, patch clamp system. Pulse generation and data collection were performed with PatchController384 V1.3.0 and DataController384 V1.2.1 (Nanion Technologies). The access resistance and apparent membrane capacitance were estimated using built-in protocols. Current was recorded in perforated patch mode (10 μM escin) from a population of cells. The cells were lifted, triturated, and resuspended at 800,000 cells/ml. The cells were allowed to recover in the cell hotel prior to experimentation. Currents were recorded at room temperature. The external solution contained the following (in mM): NaCl 105, NMDG 40, KCl 4, MgCl2 1, CaCl2 5, and HEPES 10 (pH=7.4, Osmolarity ˜300 mOsm). The extracellular solution was used as the wash, reference, and compound delivery solution. The internal solution contained the following (in mM): NaCl 70, KF 70, KCl 10, EGTA 5, HEPES 5, and Escin 0.01 (pH=7.2, Osmolarity ˜295 mOsm). Escin is made at a 5 mM stock in water, aliquoted, and stored at −20° C. The compound plate was created at 2× concentrated in the extracellular solution. The compound was diluted to 1:2 when added to the recording well. The amount of DMSO in the extracellular solution was held constant at the level used for the highest tested concentration. A holding potential of −80 mV with a 100 ms step to 0 mV was used. Mean current was measured during the step to 0 mV. […] The average mean current from 3 sweeps was calculated and the percent inhibition of each compound was calculated. The percent inhibition as a function of the compound concentration was fit with a Hill equation to derive IC50, slope, minimum parameters, and maximum parameters. If KCNT1 inhibition was less than 50% at the highest tested concentration or if an IC50 could not be calculated, then a percent inhibition was reported in place of the IC50.
In this table, “A” indicates IC50 of less than or equal to 1 μM; “B” indicates inhibition of between 1 μM to 20 μM; and “C” indicates inhibition of greater than or equal to 20 μM.

Regarding `Cn1nc(C(F)(F)F)cc1C(=O)NC1(c2cc(-c3ccnc(C(F)(F)F)c3)nn2C)CCC1` [Compound 1064, 1-methyl-N-(1-(1-methyl-3-(2-(trifluoromethyl)pyridin-4-yl)-1H-pyrazol-5-yl)cyclobutyl)-3-(trifluoromethyl)-1H-pyrazole-5-carboxamide], the IC50 (as a rule, the concentration that gives 50% inhibition) is at most 1 µM. The figure for `Cn1nc(C(F)(F)F)cc1C(=O)NC(C)(C)c1cc(-c2ccnc(C(F)(F)F)c2)nn1C` [Compound 1063, 1-methyl-N-(2-(1-methyl-3-(2-(trifluoromethyl)pyridin-4-yl)-1H-pyrazol-5-yl)propan-2-yl)-3-(trifluoromethyl)-1H-pyrazole-5-carboxamide] is at most 1 µM.
